The target of this assay is T1, MST3 kinase domain (Homo sapiens, UniProt Q9Y6E0).
T1 construct: 5 μg/ml MST3 kinase domain; Met-Ser-Leu (vector-encoded residues) (N); Glu-Gly-His6 (C); made in house; host or cells: E. coli
The assay is described as follows: MST3 kinase assay (PK/LDH-coupled, loss of NADH at 340 nm). It is filed as biochemical. To be noted: purified MST3 kinase domain 5 μg/ml, 10 μM ATP, 400 μM MST3 peptide, 1 mM MnCl2.

Counter-ions that a name gives are not always drawn.

T1 sequence (Q9Y6E0 36-286 limits assumed): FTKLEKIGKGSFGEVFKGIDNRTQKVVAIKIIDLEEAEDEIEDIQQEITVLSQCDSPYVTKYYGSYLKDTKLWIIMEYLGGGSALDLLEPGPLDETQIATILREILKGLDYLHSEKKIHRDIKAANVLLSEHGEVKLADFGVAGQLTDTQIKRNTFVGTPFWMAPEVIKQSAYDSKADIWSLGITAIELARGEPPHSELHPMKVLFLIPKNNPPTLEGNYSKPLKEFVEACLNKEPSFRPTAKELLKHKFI

For orientation: IC50 means the concentration needed to halve the response being measured. Read a low IC50 as higher potency. As for `O=S(=O)(NCCNCC=Cc1ccc(Br)cc1)c1cccc2cnccc12` [H89, N-[2-(p-Bromocinnamylamino)ethyl]-5-isoquinolinesulfonamide.2HCl], 30 µM corresponded to half-maximal inhibition (IC50).

Consider `O=S(=O)(c1cccc2c(Cl)cccc12)N1CCCNCC1` [ML-9, 1-(5-Chloronaphthalene-1-sulfonyl)-1H-hexahydro-1,4-diazepine.HCl], for which the IC50 turned out to be 18 µM.

Values taken from patent US20030225527A1, “Crystals and structures of MST3” (priority 2002, published 2003).
